# Test results reported in BindingDB's records for PubMed 3139864 (Vanderbilt University, 1988).
# Target: T1, 5-hydroxytryptamine receptor 2C (Rattus norvegicus, UniProt P08909)
# T1 sequence (P08909 whole entry): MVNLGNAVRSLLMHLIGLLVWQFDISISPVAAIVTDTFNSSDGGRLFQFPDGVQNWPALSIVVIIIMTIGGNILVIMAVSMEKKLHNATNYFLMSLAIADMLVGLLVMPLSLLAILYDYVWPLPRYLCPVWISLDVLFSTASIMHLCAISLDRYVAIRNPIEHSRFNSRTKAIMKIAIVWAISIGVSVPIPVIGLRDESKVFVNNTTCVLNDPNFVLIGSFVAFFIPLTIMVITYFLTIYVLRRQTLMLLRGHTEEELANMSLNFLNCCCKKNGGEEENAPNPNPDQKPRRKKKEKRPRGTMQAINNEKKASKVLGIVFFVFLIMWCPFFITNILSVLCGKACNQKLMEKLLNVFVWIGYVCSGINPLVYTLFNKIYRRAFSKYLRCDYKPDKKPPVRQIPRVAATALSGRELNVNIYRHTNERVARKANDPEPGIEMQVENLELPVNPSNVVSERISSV
row,SMILES,Ki [nM]
1,CN(C)CCCN1c2ccccc2CCc2ccccc21,100
2,"O=C(c1ccc(F)cc1)C1CCN(CCn2c(=O)[nH]c3ccccc3c2=O)CC1 [3-(2-{4-[(4-fluorophenyl)carbonyl]piperidin-1-yl}ethyl)-1,2,3,4-tetrahydroquinazoline-2,4-dione]",30
3,"CC1(C)CC(=O)N(CCCCN2CCN(c3ncccn3)CC2)C(=O)C1 [4,4-Dimethyl-1-[4-(4-pyrimidin-2-yl-piperazin-1-yl)-butyl]-piperidine-2,6-dione]",> 10000
4,CN(C)CCC(c1ccc(Cl)cc1)c1ccccn1 (centres undefined) [clorfeniramina],3120
